Measurements as given in US20260042731A1, “(2,4-DICHLOROPHENOXY)ACETIC ACID ANALOGS” (CORTEVA AGRISCIENCE LLC, priority 2022, published 2026).
Several values for one entry are separate records, joined by “and”; a condition that tells them apart may be missing. Identical values can stand only once. Like-named read-outs stand apart in the source and are kept apart here.

Key:
[1] = test system: Abutilon theophrasti (ABUTH), velvetleaf; experiment: Postemergence herbicide evaluation, growth of Abutilon theophrasti (ABUTH); assay type: in vivo; settings: Abutilon theophrasti, post-emergence
[2] = test system: Chenopodium album (CHEAL), common lambsquarters; experiment: Postemergence herbicide evaluation, growth of Chenopodium album (CHEAL); assay type: in vivo; settings: Chenopodium album, post-emergence
[3] = test system: weeds (ABUTH, AMATA, AMBEL, CHEAL, ERICA); experiment: Postemergence herbicide evaluation, overall average % weed control across ABUTH, AMATA, AMBEL, CHEAL, ERICA; assay type: in vivo; settings: post-emergence, average over the five weeds, read-out: Overall Ave % Weed Control; for pest or weed control at 280 g/ha: 280 g ae/ha; for pest or weed control at 560 g/ha: 560 g ae/ha
[4] = test system: Ambrosia artemisiifolia (AMBEL), common ragweed; experiment: Postemergence herbicide evaluation, growth of Ambrosia artemisiifolia (AMBEL); assay type: in vivo; settings: Ambrosia artemisiifolia, post-emergence
[5] = test system: glyphosate resistant Conyza canadensis (L.) (ERICA), horseweed; experiment: Postemergence herbicide evaluation, growth of Conyza canadensis (ERICA); assay type: in vivo; settings: Erigeron canadensis, post-emergence; for pest or weed control at 280 g/ha: 280 g ae/ha; for pest or weed control at 560 g/ha: 560 g ae/ha
[6] = test system: Amaranthus rudis (AMATA), tall water hemp; experiment: Postemergence herbicide evaluation, growth of Amaranthus rudis (AMATA); assay type: in vivo; settings: Amaranthus tuberculatus, post-emergence
[7] = test system: weeds ABUTH, AMATA, AMBEL, CHEAL, ERICA; experiment: Postemergence herbicide evaluation, overall average % weed control (ABUTH, AMATA, AMBEL, CHEAL, ERICA); assay type: in vivo; settings: post-emergence, 168 h, 7 DAA, read-out: Overall Ave % Weed Control
[8] = Volatility of compounds measured by thermogravimetric analysis (TGA); assay type: physicochemical
[9] = test system: weeds ABUTH, AMATA, AMBEL, CHEAL, ERICA; experiment: Postemergence herbicide evaluation, overall average % weed control across ABUTH, AMATA, AMBEL, CHEAL and ERICA; assay type: in vivo; settings: post-emergence, read-out: Overall Ave % Weed Control
[10] = 168 h, 7 DAA, read-out: Ave. ERICA, percent reduction in plant size relative to the untreated control
[11] = 336 h, 14 DAA, percent reduction in plant size relative to untreated control, read-out: Ave. ERICA
[12] = 504 h, 21 DAA, percent reduction in plant size relative to untreated control, read-out: Ave. ERICA

## N/C(=N\OC(=O)COc1ccc(Cl)cc1Cl)c1ccco1 [Compound A5]
[1]; 168 h, 280 g ae/ha, 7 DAA, read-out: AVE. ABUTH, percent reduction in plant size relative to the untreated control
  pest or weed control at 280 g/ha: 38%
[1]; 168 h, 560 g ae/ha, 7 DAA, read-out: AVE. ABUTH, percent reduction in plant size relative to the untreated control
  pest or weed control at 560 g/ha: 43%
[1]; 336 h, 280 g ae/ha, 14 DAA, percent reduction in plant size relative to untreated control, read-out: AVE. ABUTH
  pest or weed control at 280 g/ha: 40%
[1]; 336 h, 560 g ae/ha, 14 DAA, percent reduction in plant size relative to untreated control, read-out: AVE. ABUTH
  pest or weed control at 560 g/ha: 53%
[1]; 504 h, 280 g ae/ha, 21 DAA, percent reduction in plant size relative to untreated control, read-out: AVE. ABUTH
  pest or weed control at 280 g/ha: 30%
[1]; 504 h, 560 g ae/ha, 21 DAA, percent reduction in plant size relative to untreated control, read-out: AVE. ABUTH
  pest or weed control at 560 g/ha: 50%
[2]; 168 h, 280 g ae/ha, 7 DAA, read-out: Ave. CHEAL, percent reduction in plant size relative to the untreated control
  pest or weed control at 280 g/ha: 60%
[2]; 168 h, 560 g ae/ha, 7 DAA, read-out: Ave. CHEAL, percent reduction in plant size relative to the untreated control
  pest or weed control at 560 g/ha: 63%
[2]; 336 h, 280 g ae/ha, 14 DAA, percent reduction in plant size relative to untreated control, read-out: Ave. CHEAL
  pest or weed control at 280 g/ha: 68%
[2]; 336 h, 560 g ae/ha, 14 DAA, percent reduction in plant size relative to untreated control, read-out: Ave. CHEAL
  pest or weed control at 560 g/ha: 63%
[2]; 504 h, 280 g ae/ha, 21 DAA, percent reduction in plant size relative to untreated control, read-out: Ave. CHEAL
  pest or weed control at 280 g/ha: 68%
[2]; 504 h, 560 g ae/ha, 21 DAA, percent reduction in plant size relative to untreated control, read-out: Ave. CHEAL
  pest or weed control at 560 g/ha: 65%
[3]; 336 h, 14 DAA
  pest or weed control at 280 g/ha: 68%
  pest or weed control at 560 g/ha: 71%
[3]; 504 h, 21 DAA
  pest or weed control at 280 g/ha: 67%
  pest or weed control at 560 g/ha: 72%
[4]; 168 h, 280 g ae/ha, 7 DAA, read-out: AVE. AMBEL, percent reduction in plant size relative to the untreated control
  pest or weed control at 280 g/ha: 60%
[4]; 168 h, 560 g ae/ha, 7 DAA, read-out: AVE. AMBEL, percent reduction in plant size relative to the untreated control
  pest or weed control at 560 g/ha: 60%
[4]; 336 h, 280 g ae/ha, 14 DAA, percent reduction in plant size relative to untreated control, read-out: AVE. AMBEL
  pest or weed control at 280 g/ha: 78%
[4]; 336 h, 560 g ae/ha, 14 DAA, percent reduction in plant size relative to untreated control, read-out: AVE. AMBEL
  pest or weed control at 560 g/ha: 85%
[4]; 504 h, 280 g ae/ha, 21 DAA, percent reduction in plant size relative to untreated control, read-out: AVE. AMBEL
  pest or weed control at 280 g/ha: 78%
[4]; 504 h, 560 g ae/ha, 21 DAA, percent reduction in plant size relative to untreated control, read-out: AVE. AMBEL
  pest or weed control at 560 g/ha: 85%
[5]; [10]
  pest or weed control at 280 g/ha: 70%
  pest or weed control at 560 g/ha: 73%
[5]; [11]
  pest or weed control at 280 g/ha: 83%
  pest or weed control at 560 g/ha: 85%
[5]; [12]
  pest or weed control at 280 g/ha: 88%
  pest or weed control at 560 g/ha: 88%
[6]; 168 h, 280 g ae/ha, 7 DAA, read-out: Ave. AMATA, percent reduction in plant size relative to the untreated control
  pest or weed control at 280 g/ha: 70%
[6]; 168 h, 560 g ae/ha, 7 DAA, read-out: Ave. AMATA, percent reduction in plant size relative to the untreated control
  pest or weed control at 560 g/ha: 65%
[6]; 336 h, 280 g ae/ha, 14 DAA, percent reduction in plant size relative to untreated control, read-out: Ave. AMATA
  pest or weed control at 280 g/ha: 73%
[6]; 336 h, 560 g ae/ha, 14 DAA, percent reduction in plant size relative to untreated control, read-out: Ave. AMATA
  pest or weed control at 560 g/ha: 68%
[6]; 504 h, 280 g ae/ha, 21 DAA, percent reduction in plant size relative to untreated control, read-out: Ave. AMATA
  pest or weed control at 280 g/ha: 73%
[6]; 504 h, 560 g ae/ha, 21 DAA, percent reduction in plant size relative to untreated control, read-out: Ave. AMATA
  pest or weed control at 560 g/ha: 70%
[7]; 280 g ae/ha
  pest or weed control at 280 g/ha: 60%
[7]; 560 g ae/ha
  pest or weed control at 560 g/ha: 61%
[8]
  TGA Data (rate of weight loss, volatility): 1.2 µg/min

## O=C(COc1ccc(Cl)cc1Cl)OCCCCCOC(=O)COc1ccc(Cl)cc1Cl [Compound B8]
[9]; 168 h
  pest or weed control at 280 g/ha: 74.3%
  pest or weed control at 560 g/ha: 79.8%
[9]; 336 h
  pest or weed control at 280 g/ha: 90.4%
  pest or weed control at 560 g/ha: 95.9%
[9]; 504 h
  pest or weed control at 280 g/ha: 96.8%
  pest or weed control at 560 g/ha: 99.7%
[1]; 504 h, read-out: AVE. ABUTH
  pest or weed control at 280 g/ha: 97%
  pest or weed control at 560 g/ha: 99%
[2]; 168 h, read-out: Ave. CHEAL
  pest or weed control at 280 g/ha: 80%
  pest or weed control at 560 g/ha: 82.5%
[2]; 336 h, read-out: Ave. CHEAL
  pest or weed control at 280 g/ha: 92.5%
  pest or weed control at 560 g/ha: 97%
[2]; 504 h, read-out: Ave. CHEAL
  pest or weed control at 280 g/ha: 96%
  pest or weed control at 560 g/ha: 99.5%
[4]; 168 h, read-out: AVE. AMBEL
  pest or weed control at 560 g/ha: 72.5%
[4]; 336 h, read-out: AVE. AMBEL
  pest or weed control at 280 g/ha: 90%
[4]; 504 h, read-out: AVE. AMBEL
  pest or weed control at 280 g/ha: 100%
  pest or weed control at 560 g/ha: 100%
[6]; 168 h, read-out: Ave. AMATA
  pest or weed control at 280 g/ha: 84%
[6]; 336 h, read-out: Ave. AMATA
  pest or weed control at 280 g/ha: 92.5%
  pest or weed control at 560 g/ha: 96.5%
[6]; 504 h, read-out: Ave. AMATA
  pest or weed control at 280 g/ha: 92.5%
  pest or weed control at 560 g/ha: 100%
[8]
  TGA Data (rate of weight loss, volatility): 0.3521 µg/min and 0.38 µg/min
